This note sets out measurements from US12559492B2, “BRAF degraders” (C4 Therapeutics, Inc., priority 2020, dated 2026).

For the assay, the target named is BRAF^V600E protein (Homo sapiens, UniProt P15056, V600E). The assay can be described thus: HiBiT cellular BRAF V600E degradation assay. In kind it is cell-based. The settings on record: 24 h incubation; for DC50: A375.10 cells (HiBiT tag knocked in at N-terminal of BRAF V600E), concentration at which 50% of total cellular BRAF V600E is degraded; for Emax: read-out: HiBit 24 h Emax.

[1] abbreviates: A375.10 cells, Emax = amount of residual protein remaining in the cell after compound treatment.

Sequence of BRAF^V600E protein (P15056 whole entry V600E): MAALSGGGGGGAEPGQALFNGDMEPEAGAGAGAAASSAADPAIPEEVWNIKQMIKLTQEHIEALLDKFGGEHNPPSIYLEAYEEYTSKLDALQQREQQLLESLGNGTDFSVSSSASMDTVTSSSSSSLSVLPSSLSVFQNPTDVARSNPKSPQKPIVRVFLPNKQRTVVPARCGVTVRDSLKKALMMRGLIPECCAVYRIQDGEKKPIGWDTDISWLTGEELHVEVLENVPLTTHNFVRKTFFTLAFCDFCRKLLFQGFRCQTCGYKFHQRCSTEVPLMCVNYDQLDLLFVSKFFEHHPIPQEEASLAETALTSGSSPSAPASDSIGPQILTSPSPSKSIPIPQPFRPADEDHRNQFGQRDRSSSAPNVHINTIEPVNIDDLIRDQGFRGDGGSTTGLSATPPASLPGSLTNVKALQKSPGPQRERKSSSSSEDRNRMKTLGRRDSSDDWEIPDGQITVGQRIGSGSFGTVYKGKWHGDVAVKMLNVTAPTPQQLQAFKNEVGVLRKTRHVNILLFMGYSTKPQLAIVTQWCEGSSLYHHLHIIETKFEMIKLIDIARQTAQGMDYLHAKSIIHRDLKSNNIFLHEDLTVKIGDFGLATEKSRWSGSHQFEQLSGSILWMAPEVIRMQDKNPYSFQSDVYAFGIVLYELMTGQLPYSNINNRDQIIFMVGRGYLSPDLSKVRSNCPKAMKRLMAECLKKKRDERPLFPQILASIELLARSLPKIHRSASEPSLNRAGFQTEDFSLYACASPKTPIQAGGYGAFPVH

By DC50 is commonly meant the concentration at which degradation of the target reaches its halfway point. Lower therefore signals a more potent degrader. What is called Emax is the greatest response seen or fitted, relative to the assay's reference. `CCN(C)S(=O)(=O)Nc1ccc(F)c(C(=O)c2c[nH]c3ncc(-c4ccc(N5CCN(C(=O)CC6(O)CCN(c7ccc(NC8CCC(=O)NC8=O)cc7C(F)F)CC6)CC5)nc4)cc23)c1F` (stereo not shown) [Example 197, 5-[6-[4-[2-[1-[2-(difluoromethyl)-4-[(2,6-dioxo-3-piperidyl)amino]phenyl]-4-hydroxy-4-piperidyl]acetyl]piperazin-1-yl]-3-pyridyl]-3-[3-[[ethyl(methyl)sulfamoyl]amino]-2,6-difluoro-benzoyl]-1H-pyrrolo[2,3-b]pyridine] returned a DC50 of 7.36 nM. The Emax under setting [1] worked out at 8.11%.

Regarding `CCN(C)S(=O)(=O)Nc1ccc(F)c(C(=O)c2c[nH]c3ncc(-c4cnc(N5CCN(C(=O)CN6CCC(c7ccc(N(C)C8CCC(=O)NC8=O)cc7)CC6)CC5)nc4)cc23)c1F` (stereo not shown) [Example 22, 5-[2-[4-[2-[4-[4-[(2,6-dioxo-3-piperidyl)-methyl-amino]phenyl]-1-piperidyl]acetyl]piperazin-1-yl]pyrimidin-5-yl]-3-[3-[[ethyl(methyl)sulfamoyl]amino]-2,6-difluoro-benzoyl]-1H-pyrrolo[2,3-b]pyridine], the DC50 was 19.4 nM. The “HiBit 24 h Emax” value under setting [1] is listed as 18.02%.

`CCN(C)S(=O)(=O)Nc1ccc(F)c(C(=O)c2c[nH]c3ncc(-c4ccc(N5CCN(C(=O)CC6(O)CCN(c7ccc(C8CCC(=O)NC8=O)cc7F)CC6)CC5)cc4)cc23)c1F` (stereo not shown) [Example 175, 5-[4-[4-[2-[1-[4-(2,6-dioxo-3-piperidyl)-2-fluoro-phenyl]-4-hydroxy-4-piperidyl]acetyl]piperazin-1-yl]phenyl]-3-[3-[[ethyl(methyl)sulfamoyl]amino]-2,6-difluoro-benzoyl]-1H-pyrrolo[2,3-b]pyridine] had a DC50 of 7.12 nM. Also, under setting [1], the Emax came out at 9.59%.

Take `[2H][C@]1(c2ccc(N3CCC(O)(CC(=O)N4CCN(c5ncc(-c6cnc7[nH]cc(C(=O)c8c(F)ccc(NS(=O)(=O)N(C)CC)c8F)c7c6)cn5)CC4)CC3)c(F)c2)CCC(=O)NC1=O` (single isomer, unassigned) [Example 158d]: the DC50 came to 205 nM. Besides, the Emax under setting [1] was 11.6%.

In turn, `CCN(C)S(=O)(=O)Nc1cccc(C(=O)c2c[nH]c3ncc(-c4ccc(N5CCN(C(=O)NC6CCN(c7ccc(NC8CCC(=O)NC8=O)cc7F)CC6)CC5)nc4)cc23)c1F` (stereo not shown) [Example 154, N-[1-[4-[(2,6-dioxo-3-piperidyl)amino]-2-fluoro-phenyl]-4-piperidyl]-4-[5-[3-[3-[[ethyl(methyl)sulfamoyl]amino]-2-fluoro-benzoyl]-1H-pyrrolo[2,3-b]pyridin-5-yl]-2-pyridyl]piperazine-1-carboxamide] registered a 50% degradation concentration (DC50) of 2.94 nM. In addition, the Emax under setting [1] amounted to 8.25%.

`CCN(C)S(=O)(=O)Nc1ccc(F)c(C(=O)c2c[nH]c3ncc(-c4cnc(N5CCN(C(=O)CN6CCC(c7ccc(OC8CCC(=O)NC8=O)cc7)CC6)CC5)nc4)cc23)c1F` (stereo not shown) [Example A6, 5-[2-[4-[2-[4-[4-(2,6-Dioxopiperidin-3-yl)oxyphenyl]piperidin-1-yl]acetyl]piperazin-1-yl]pyrimidin-5-yl]-3-[3-[[ethyl(methyl)sulfamoyl]amino]-2,6-difluorobenzoyl]-1H-pyrrolo[2,3-b]pyridine] showed a DC50 of 15 nM. Moreover, under setting [1], the Emax turned out to be 13%.

`CCN(C)S(=O)(=O)Nc1cccc(C(=O)c2c[nH]c3ncc(-c4cnc(N5CCN(C(=O)CC6(O)CCN(c7ccc(NC8CCC(=O)NC8=O)cc7)CC6)CC5)nc4)cc23)c1F` (stereo not shown) [Example 99, 5-[2-[4-[2-[1-[4-[(2,6-dioxo-3-piperidyl)amino]phenyl]-4-hydroxy-4-piperidyl]acetyl]piperazin-1-yl]pyrimidin-5-yl]-3-[3-[[ethyl(methyl)sulfamoyl]amino]-2-fluoro-benzoyl]-1H-pyrrolo[2,3-b]pyridine]: half-maximal degradation (DC50) was put at 9.55 nM. Moreover, the Emax under setting [1] is 13.2%.

`CCN(C)S(=O)(=O)Nc1cccc(C(=O)c2c[nH]c3ncc(-c4cnc(N5CCN(C(=O)NC6CCN(c7ccc(NC8CCC(=O)NC8=O)cc7F)CC6)CC5)nc4)cc23)c1F` (stereo not shown) [Example 141, N-[1-[4-[(2,6-dioxo-3-piperidyl)amino]-2-fluoro-phenyl]-4-piperidyl]-4-[5-[3-[3-[[ethyl(methyl)sulfamoyl]amino]-2-fluoro-benzoyl]-1H-pyrrolo[2,3-b]pyridin-5-yl]pyrimidin-2-yl]piperazine-1-carboxamide]: the DC50 was 2.84 nM. In addition, the Emax under setting [1] was 7.91%.

With `CCN(C)S(=O)(=O)Nc1ccc(F)c(C(=O)c2c[nH]c3ncc(-c4cnc(N5CCC(NC(=O)N6CCC(c7ccc(NC8CCC(=O)NC8=O)cc7)CC6)CC5)nc4)cc23)c1F` (stereo not shown) [Example A34, 4-[4-[(2,6-Dioxopiperidin-3-yl)amino]phenyl]-N-[1-[5-[3-[3-[[ethyl(methyl)sulfamoyl]amino]-2,6-difluorobenzoyl]-1H-pyrrolo[2,3-b]pyridin-5-yl]pyrimidin-2-yl]piperidin-4-yl]piperidine-1-carboxamide;formic acid], the DC50 was determined as 79 nM. The Emax under setting [1] was found to be 25%.

In the case of `CCN(C)S(=O)(=O)Nc1ccc(F)c(C(=O)c2c[nH]c3ncc(-c4cnc(N5CCN(C(=O)CN6CCC(c7ccc(NC8CCC(=O)NC8=O)cc7)CC6)CC5)nc4)cc23)c1Cl` (stereo not shown) [Example 121, 3-[2-chloro-3-[[ethyl(methyl)sulfamoyl]amino]-6-fluoro-benzoyl]-5-[2-[4-[2-[4-[4-[(2,6-dioxo-3-piperidyl)amino]phenyl]-1-piperidyl]acetyl]piperazin-1-yl]pyrimidin-5-yl]-1H-pyrrolo[2,3-b]pyridine], the DC50 was determined as 2.3 nM. For the same molecule, under setting [1], the Emax was found to be 4.98%.

`CCN(C)S(=O)(=O)Nc1ccc(F)c(C(=O)c2c[nH]c3ncc(-c4cnc(N5CCN(C(=O)CC6(O)CCN(c7ccc(NC8CCC(=O)NC8=O)cc7F)C6)CC5)nc4)cc23)c1F` (stereo not shown) [Example 51, 5-[2-[4-[2-[1-[4-[(2,6-dioxo-3-piperidyl)amino]-2-fluoro-phenyl]-3-hydroxy-pyrrolidin-3-yl]acetyl]piperazin-1-yl]pyrimidin-5-yl]-3-[3-[[ethyl(methyl)sulfamoyl]amino]-2,6-difluoro-benzoyl]-1H-pyrrolo[2,3-b]pyridine] yielded a DC50 of 5.51 nM. The Emax under setting [1] was 6.09%.

The molecule `O=C1CCN(c2cccc(C3CCN(CC(=O)N4CCN(c5ccc(-c6cnc7[nH]cc(C(=O)c8c(F)ccc(NS(=O)(=O)N9CCCC9)c8F)c7c6)cc5)CC4)CC3)c2)C(=O)N1` [Example A88, N-[3-[5-[4-[4-[2-[4-[3-(2,4-Dioxo-1,3-diazinan-1-yl)phenyl]piperidin-1-yl]acetyl]piperazin-1-yl]phenyl]-1H-pyrrolo[2,3-b]pyridine-3-carbonyl]-2,4-difluorophenyl]pyrrolidine-1-sulfonamide] yielded a DC50 of 52 nM. For the same molecule, the Emax under setting [1] came to 26%.

With `CCN(C)S(=O)(=O)Nc1ccc(F)c(C(=O)c2c[nH]c3ncc(-c4ccc(N5CCN(CCN6CCC(c7ccc(NC8CCC(=O)NC8=O)cc7)CC6)CC5)nc4)cc23)c1F` (stereo not shown) [Example 143, 5-[6-[4-[2-[4-[4-[(2,6-dioxo-3-piperidyl)amino]phenyl]-1-piperidyl]ethyl]piperazin-1-yl]-3-pyridyl]-3-[3-[[ethyl(methyl)sulfamoyl]amino]-2,6-difluoro-benzoyl]-1H-pyrrolo[2,3-b]pyridine], the half-maximal degradation concentration (DC50) was found to be 4.04 nM. In addition, under setting [1], the Emax is 11.5%.

Consider `CCN(C)S(=O)(=O)Nc1ccc(F)c(C(=O)c2c[nH]c3ncc(-c4ccc(OC5CCN(C(=O)CN6CCC(c7ccc(NC8CCC(=O)NC8=O)cc7)CC6)CC5)cc4)cc23)c1F` (stereo not shown) [Example A31, 5-[4-[1-[2-[4-[4-[(2,6-dioxopiperidin-3-yl)amino]phenyl]piperidin-1-yl]acetyl]piperidin-4-yl]oxyphenyl]-3-[3-[[ethyl(methyl)sulfamoyl]amino]-2,6-difluorobenzoyl]-1H-pyrrolo[2,3-b]pyridine], for which it took 15 nM to reach half-maximal degradation (DC50). Besides, under setting [1], the Emax is 12%.

`CCN(C)S(=O)(=O)Nc1ccc(F)c(C(=O)c2c[nH]c3ncc(-c4cnc(N5CCC(NC(=O)CN6CCC(c7ccc(NC8CCC(=O)NC8=O)cn7)CC6)CC5)nc4)cc23)c1F` (stereo not shown) [Example A58, 2-[4-[5-[(2,6-dioxopiperidin-3-yl)amino]pyridin-2-yl]piperidin-1-yl]-N-[1-[5-[3-[3-[[ethyl(methyl)sulfamoyl]amino]-2,6-difluorobenzoyl]-1H-pyrrolo[2,3-b]pyridin-5-yl]pyrimidin-2-yl]piperidin-4-yl]acetamide; formic acid]: the DC50 came to 43 nM. Besides, the Emax under setting [1] came out at 13%.

In the case of `CCN(C)S(=O)(=O)Nc1ccc(F)c(C(=O)c2c[nH]c3ncc(-c4ccc(N5CCN(C(=O)CC6(O)CCN(c7ccc(N[C@H]8CCC(=O)NC8=O)cc7Cl)CC6)CC5)nc4)cc23)c1F` [Example 208, 5-[6-[4-[2-[1-[2-chloro-4-[[(3S)-2,6-dioxo-3-piperidyl]amino]phenyl]-4-hydroxy-4-piperidyl]acetyl]piperazin-1-yl]-3-pyridyl]-3-[3-[[ethyl(methyl)sulfamoyl]amino]-2,6-difluoro-benzoyl]-1H-pyrrolo[2,3-b]pyridine], the DC50 amounted to 1.73 nM. In addition, under setting [1], the Emax came out at 7.34%.

The molecule `CCN(C)S(=O)(=O)Nc1ccc(F)c(C(=O)c2c[nH]c3ncc(-c4cnc(N5CCN(C(=O)CN6CCC(N7CCN(C8CCC(=O)NC8=O)C(=O)C7)C(F)(F)C6)CC5)nc4)cc23)c1F` (stereo not shown) [Example 173, 5-[2-[4-[2-[4-[4-(2,6-dioxo-3-piperidyl)-3-oxo-piperazin-1-yl]-3,3-difluoro-1-piperidyl]acetyl]piperazin-1-yl]pyrimidin-5-yl]-3-[3-[[ethyl(methyl)sulfamoyl]amino]-2,6-difluoro-benzoyl]-1H-pyrrolo[2,3-b]pyridine] had a DC50 of 6.37 nM. Moreover, the Emax under setting [1] turned out to be 7.19%.
